Laboratory results taken from patent US11457627B2, “Plant activator” (IBIDEN CO., LTD., priority 2017, dated 2022).

How the values were obtained:
[1] = tested on: PDF1.2 gene; assay: Evaluation of the resistance gene expression (real-time PCR), PDF1.2; assay type: in vivo, Arabidopsis thaliana; conditions: 0.012% in 0.15% potassium bicarbonate (FIG. 1) or 0.15% dipotassium hydrogenphosphate (FIG. 2) aqueous solution, watering of roots, RNA 24 hours after treatment
Experimental: (§1) As Example 1, 0.15% potassium bicarbonate aqueous solution containing 0.012% of 13-oxo-9,11-octadecadienoic acid was prepared. (9Z,11E)-13-oxo-9,11-octadecadienoic acid (13-oxoODA, Cayman Chemical Company, INC.) was used as a 13-oxo-9,11-octadecadienoic acid. […]
(§2) Each of the aqueous solutions obtained from Examples 1 and 2 was applied using the watering to treat only the roots (underground part) of Arabidopsis thaliana plants grown in the soil. The total RNA was isolated 24 hours after treatment from each Arabidopsis thaliana plant treated with each of the aqueous solutions and from the untreated Arabidopsis thaliana plant as a control, and the cDNA was synthesized from the isolated total RNA, and then the expression levels of resistance genes, PR1, PR2 and PDF1.2 were analyzed by real-time PCR. […]

[2] = tested on: resistance genes, PR1, PR2 and PDF1.2; assay: Resistance-inducing effect (expression of resistance genes overall); assay type: in vivo, Arabidopsis thaliana; conditions: used instead of the oxo fatty acid
Experimental: As Example 1, 0.15% potassium bicarbonate aqueous solution containing 0.012% of 13-oxo-9,11-octadecadienoic acid was prepared. (9Z,11E)-13-oxo-9,11-octadecadienoic acid (13-oxoODA, Cayman Chemical Company, INC.) was used as a 13-oxo-9,11-octadecadienoic acid. As Comparative Examples, 0.15% potassium bicarbonate aqueous solution containing 0.012% of a fatty acid analog, which is selected from 13-HPODE ((9Z,11E)-13-hydroperoxy-9,11-octadecadienoic acid, Cayman Chemical Company, INC.), 9-HPODE ((10Z,12E)-9-hydroperoxy-10,12-octadecadienoic acid, Cayman Chemical Company, INC.), 9-HPOTE ((10E,12Z,15Z)-9-hydroperoxy-10,12,15-octadecatrienoic acid, Cayman Chemical Company, INC.), 9-HOTE ((10E,12Z,15Z)-9-hydroxy-10,12,15-octadecatrienoic acid, Cayman Chemical Company, INC.), 13-HPOTE ((9Z, 11E, 15Z)-13-hydroperoxy-9,11,15-octadecatrienoic acid, Cayman Chemical Company, INC.), 13-HOTE ((9Z, 11E, 15Z)-13-hydroxy-9,11,15-octadecatrienoic acid, Cayman Chemical Company, INC.) and 12-OPDA (12-oxo-phytodienoic acid, Cayman Chemical Company, INC.), and 0.15% potassium bicarbonate aqueous solution containing 0.012% of an α-ketol fatty acid were prepared. An aqueous solution of α-ketol fatty acid was prepared according to the preparation method described below.
As Example 2, 0.15% dipotassium hydrogenphosphate aqueous solution containing 0.012% of 13-oxo-9,11-octadecadienoic acid was prepared. (9Z,11E)-13-oxo-9,11-octadecadienoic acid (13-oxoODA, Cayman Chemical Company, INC.) was used as a 13-oxo-9,11-octadecadienoic acid. […]
as §2

[3] = tested on: PR1 gene; assay: Evaluation of the resistance gene expression (real-time PCR), PR1; assay type: in vivo, Arabidopsis thaliana; conditions: 0.012% in 0.15% potassium bicarbonate (FIG. 1) or 0.15% dipotassium hydrogenphosphate (FIG. 2) aqueous solution, watering of roots, RNA 24 hours after treatment
Experimental: as §1, §2

[4] = biological target: T1, PPARα (peroxisome proliferator-activated receptor α) (Homo sapiens, UniProt Q07869); conditions: known from prior art; cited from earlier work
T1 sequence (Q07869 1-468): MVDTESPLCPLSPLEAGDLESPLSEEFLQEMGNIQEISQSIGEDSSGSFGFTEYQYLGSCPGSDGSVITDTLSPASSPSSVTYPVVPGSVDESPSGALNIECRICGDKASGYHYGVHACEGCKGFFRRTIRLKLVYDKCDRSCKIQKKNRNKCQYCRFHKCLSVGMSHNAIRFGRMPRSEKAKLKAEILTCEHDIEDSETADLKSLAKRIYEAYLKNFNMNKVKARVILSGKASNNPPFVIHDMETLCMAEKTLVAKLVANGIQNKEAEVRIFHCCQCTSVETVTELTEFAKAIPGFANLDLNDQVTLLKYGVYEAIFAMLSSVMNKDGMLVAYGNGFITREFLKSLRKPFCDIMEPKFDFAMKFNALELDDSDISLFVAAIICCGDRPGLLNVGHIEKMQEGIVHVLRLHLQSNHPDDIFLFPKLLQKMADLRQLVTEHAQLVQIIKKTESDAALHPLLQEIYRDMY

[5] = tested on: PR2 gene; assay: Evaluation of the resistance gene expression (real-time PCR), PR2; assay type: in vivo, Arabidopsis thaliana; conditions: 0.012% in 0.15% potassium bicarbonate (FIG. 1) or 0.15% dipotassium hydrogenphosphate (FIG. 2) aqueous solution, watering of roots, RNA 24 hours after treatment
Experimental: as §1, §2

CC/C=C\C[C@@H]1C(=O)C=C[C@@H]1CCCCCCCC(=O)O [12-OPDA, 12-oxo-phytodienoic acid]
expression level of resistance gene PDF1.2 [1]: induced the expression

CC/C=C\CC(/C=C/C=C\CCCCCCCC(=O)O)OO (centres unmarked) [13-HPOTE, (9Z, 11E, 15Z)-13-hydroperoxy-9,11,15-octadecatrienoic acid]
resistance-inducing effect (effect on the expression of resistance-inducing traits) [2]: does not provide any resistance-inducing effect

CCCCCC(=O)/C=C/C=C\CCCCCCCC(=O)O [13-oxoODA, (9Z,11E)-13-oxo-9,11-octadecadienoic acid]
expression level of resistance gene PR1 [3]: significantly higher expressions
agonist activity to activate transcription factor PPARα [4]: strong agonist activity
expression level of resistance gene PR2 [5]: significantly higher expressions

hydroperoxy octadecatrienoic acid [HPOTE]
resistance-inducing effect (effect on the expression of resistance-inducing traits) [2]: is not obtained

hydroperoxyoctadecadienoic acid [HPODE]
resistance-inducing effect (effect on the expression of resistance-inducing traits) [2]: is not obtained

hydroxy octadecatrienoic acid [HOTE]
resistance-inducing effect (effect on the expression of resistance-inducing traits) [2]: is not obtained
